One series has as its system MDA-MB-436 cells. Nature of the series: MDA-MB-436 cell proliferation inhibition test (CellTiter-Glo, 7 days). The series is classed as cell-based. Particulars: Homo sapiens, MDA-MB-436, 168 h, 7 days incubation. Here is the method: Human breast cancer MDA-MB-436 (purchased from ATCC) cells were cultured in DMEM medium (supplemented with 10% fetal bovine serum with 1% dual antibody) at 37 °C, 5% CO2. The cells were taken from the logarithmic growth phase, digested and prepare cell suspension witha certain concentration, which was inoculated into 96-well plates. 100 µL of cell suspension was added to each well of the 96-well plates, incubated overnight, then different concentrations of compounds were added, and the cells were incubated in the cell culture incubator for 7 days. At the end of incubation, 50 µL of CellTiter-Glo reagent was added to each well, mixed with a microplate and shaked for 2 min, and left at rt for 60 min, then the fluorescence value was read with a Spark® multimode microplate reader. […] Table 2. proliferation inhibitory activity of compounds of the present invention on MDA-MB-436 cells
(Cellular ATP, detected with luciferase, serves as a proxy for viable cell number.)

In the next series the test system is MDR1. Nature of the series: MDR1-MDCK II cell model of bidirectional permeability. Format: in vitro ADME. Particulars: dog, 2 µM, 2.5 h; for Papp A→B at 2.5 h, 2 µM: apical-to-basolateral; for Papp B→A at 2.5 h, 2 µM: basolateral-to-apical. Here is the method: (§1) 2 µM of the test compound was added to the wells at the apical side or the basolateral side of the monolayer of cells and incubated for 2.5 h at 37.0°C in a 5.0% CO2 incubator. Cell monolayer integrity was determined by Lucifer yellowrejection assay. The buffer was removed from the apical side and basolateral side, and the concentration of the subject compounds was determined using LC-MS/MS. The concentration data were used to calculate the apparent permeabilitycoefficients of apical-to-basolateral (A-B) and basolateral-to-apical (B-A)side, and to calculate efflux ratio with the formula: Efflux Ratio = Papp (B-A) / Papp (A-B) Table 3. bidirectional permeability of MDR1-MDCK II cells for compounds of the present invention

A short description of series [1]: Preliminary pharmacokinetic test in mice. The series is classed as in vivo. Particulars: male, ICR; for AUC(0-t) / clearance / half-life: mouse plasma; for bioavailability: plasma, oral, mouse, p.o. 5 mg/kg versus i.v. 1 mg/kg. Here is the method: 1. Healthy ICR mice were administered the tested compounds intravenously (1 mg/kg) or by gavage (5 mg/kg). Nine male mice weighing 30-35 g for each route of administration were randomly divided into three groups of three mice each.
The mice were fasted for 12h before the test and allowed to drink water freely. The mice were fed 4h after the administration.
Intravenous and gavage administration: 0.25h, 0.5h, 1.0h, 2.0h, 3.0h, 4.0h, 6.0h, 8.0h and 24h after administration.
Blood was collected continuously, and 3 animals were collected at each time point. Plasma collection and processing: 30-40 µL of venous blood was collected from the mouse retroorbital venous plexus at the above set time points, placed in an EDTA-K2 test tube, centrifuged at 3500 rpm for 10 min, and plasma was separated and frozen in a -20 °C refrigerator.
The concentration of the compounds in mouse plasma was determined by LC/MS/MS. Pharmacokinetic parameters after administration were calculated using the […] of Phoenix 8.3 software (Pharsight, USA).

For series [2], the target named is T1, Recombinant human PARP1 protein (Homo sapiens, UniProt P09874). Nature of the series: biochemical.
T1 sequence (P09874 whole entry): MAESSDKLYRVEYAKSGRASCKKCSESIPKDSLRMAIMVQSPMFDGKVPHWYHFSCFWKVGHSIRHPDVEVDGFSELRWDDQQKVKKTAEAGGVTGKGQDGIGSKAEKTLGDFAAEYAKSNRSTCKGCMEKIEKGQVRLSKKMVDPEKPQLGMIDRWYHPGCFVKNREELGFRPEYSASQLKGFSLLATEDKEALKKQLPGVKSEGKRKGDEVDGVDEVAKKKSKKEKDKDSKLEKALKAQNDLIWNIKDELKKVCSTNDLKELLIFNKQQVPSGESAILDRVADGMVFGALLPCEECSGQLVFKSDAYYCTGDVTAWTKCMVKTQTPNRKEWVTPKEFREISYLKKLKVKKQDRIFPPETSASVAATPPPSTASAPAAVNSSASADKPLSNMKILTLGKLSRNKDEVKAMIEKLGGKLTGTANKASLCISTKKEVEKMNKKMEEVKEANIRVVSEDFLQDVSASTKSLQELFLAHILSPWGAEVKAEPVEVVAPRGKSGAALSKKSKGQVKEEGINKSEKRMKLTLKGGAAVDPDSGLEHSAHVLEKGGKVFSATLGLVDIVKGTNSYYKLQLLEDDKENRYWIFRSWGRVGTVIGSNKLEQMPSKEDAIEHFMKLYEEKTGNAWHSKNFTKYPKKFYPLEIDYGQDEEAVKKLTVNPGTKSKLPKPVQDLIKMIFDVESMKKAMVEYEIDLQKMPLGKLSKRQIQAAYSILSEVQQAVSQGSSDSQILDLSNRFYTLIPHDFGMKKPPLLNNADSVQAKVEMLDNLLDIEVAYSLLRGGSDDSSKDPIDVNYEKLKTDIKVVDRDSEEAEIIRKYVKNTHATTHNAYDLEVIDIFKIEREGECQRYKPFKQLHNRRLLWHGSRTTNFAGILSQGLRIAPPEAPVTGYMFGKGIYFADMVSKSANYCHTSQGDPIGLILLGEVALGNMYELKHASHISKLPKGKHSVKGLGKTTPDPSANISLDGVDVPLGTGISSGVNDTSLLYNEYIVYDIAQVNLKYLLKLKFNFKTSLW
Description: (§2) The PARP1/2 inhibitory activity of the compounds of the present invention was tested in an assay using Histone as a substrate.
(§3) Aim of the assay: to test the PARP1/2 enzymatic activity inhibition IC50 values of the compounds of the present application according to established experimental methods.
(§4) 1. Compound Configuration: Dilute the compounds with DMSO in 384-well plates to a 1000-fold final concentration and set aside.
(§5) 1) Dilute Histone with PBS, add 25uL of Histone mixture to each well and incubate for 2 h. 2) Wash each well 5 times using PBST solution. Remove the solution with a clean paper towel.3) Add 75 uL of Blocking buffer to each well and incubate for 1 h at rt. 4) Wash each well 5 times using PBST solution. Remove the solution with a clean paper towel.
(§6) 2) Use 1× Assay buffer to prepare 2.5× final concentration of PARP1 solution. 3) Add 10 uL of enzyme solution to the compound wells and Max control wells; add 10 uL of 1× Assay buffer. […] 6) Centrifuge at 1000 rpm for 60 seconds and incubate at rt for 2 h. 7) Each well was washed 5 times with PBST solution. Remove the solution with a clean paper towel.
(§7) 1) Prepare Streptavidin-HRP solution, add 25 µL to each well, centrifuge at 1000 rpm for 60 sec, and incubate at rt for 30 min. 2) Wash each well 5 times using PBST solution. Remove the solution with a clean paper towel. 3) Add 50 µL of ELISA Chemiluminescent Substrate per well. 4) Centrifuge at 1000 rpm for 60 seconds and read with EnSight after 5 min.
(§8) The inhibition rate was calculated using the following formula: % inhibition = (max signal - compound signal) / (max signal - min signal) × 100, where 'min signal' is the mean value of negative control wells and 'max signal' is the mean value of positive control wells.
(§9) Fitting the quantitative effect curve: using the log value of the concentration as the X-axis and the percentage inhibition as the Y-axis; using the log(inhibitor) vs. response-variable slope method in software GraphPadPrism5 to fit the quantitative effect curve to calculate the IC50 value for the inhibition of the enzyme activity by the compounds of the present invention. The fitting formula is: Y=Bottom+ (Top-Bottom)/(1+10^((logIC50-X)*HillSlope)).
Series [3] addresses T2, recombinant human PARP2 protein (Homo sapiens, UniProt Q9UGN5).
T2 construct: purchased BPS 80502
Nature of the series: PARP2 enzymatic inhibitory activity, histone substrate, chemiluminescent ELISA. Particulars: histone substrate, 500 µM NAD+ not added; read-out: PARP2 IC50. Format: biochemical. Here is the method: The PARP2 inhibitory activity assay was performed as in Experimental Method 1, except that PARP1 solution in step 2 of "3. Ribosylation reaction" was replaced with recombinant human PARP2 solution, and 500 µM NAD+ was not added in step 5 of the ribosylation reaction. Table 1. IC50 for inhibition of PARP1/2 enzymes by compounds of the present invention
Background: An ELISA detects its analyte on a solid surface through an enzyme-linked reagent.

The subject of a further series is MDR1 (P-gp). Nature of the series: MDR1-MDCK II cell model of bidirectional permeability. The series is classed as in vitro ADME. Particulars: dog, Efflux Ratio = Papp (B-A) / Papp (A-B), read-out: ER ratio. Here is the method:
as §1

In series [4] the target is T1, Recombinant human PARP1 protein. Put plainly: PARP1 enzymatic inhibitory activity, histone substrate, chemiluminescent ELISA. Particulars: PARP2 IC50 over PARP1 IC50.
Description: as §2, §3, §4, §5, §6, §7, §8, §9

The values that follow come from EP4617273A1, “FUSED TRICYCLIC PARP1 INHIBITOR, PREPARATION METHOD THEREFOR, AND USE THEREOF” (Haihe Biopharma Co., Ltd., priority 2022, dated 2024).

T2 sequence (Q9UGN5 whole entry): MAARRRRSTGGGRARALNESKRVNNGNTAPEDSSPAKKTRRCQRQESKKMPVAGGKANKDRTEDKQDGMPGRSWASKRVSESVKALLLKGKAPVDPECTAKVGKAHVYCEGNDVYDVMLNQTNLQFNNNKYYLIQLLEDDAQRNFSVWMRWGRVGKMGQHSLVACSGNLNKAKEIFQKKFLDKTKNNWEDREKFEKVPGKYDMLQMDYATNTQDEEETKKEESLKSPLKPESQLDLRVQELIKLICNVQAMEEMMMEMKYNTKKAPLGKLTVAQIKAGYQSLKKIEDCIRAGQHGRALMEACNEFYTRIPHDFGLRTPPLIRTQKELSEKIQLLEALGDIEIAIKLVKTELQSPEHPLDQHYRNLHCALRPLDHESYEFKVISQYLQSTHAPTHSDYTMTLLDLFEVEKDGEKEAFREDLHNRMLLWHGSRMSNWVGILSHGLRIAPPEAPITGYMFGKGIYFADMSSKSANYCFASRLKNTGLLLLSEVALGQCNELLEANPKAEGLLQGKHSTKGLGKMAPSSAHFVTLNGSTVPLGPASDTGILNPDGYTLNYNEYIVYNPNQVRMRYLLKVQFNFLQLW

Regarding `CNC(=O)c1ccc(N2CCN(Cc3ccc4c(c3F)NC(=O)N3CC(F)(F)CN=C43)CC2)c(C)n1` [Compound 160], the IC50 (as a rule, the concentration at which inhibition is half-maximal) with MDA-MB-436 cells was 5.7 nM. Further, in the series with MDR1, the apparent permeability from apical to basolateral (Papp A→B) (commonly the apparent permeability from the apical to the basolateral side of a cell layer) at 2.5 h, 2 µM stood at 14.3 ×10⁻⁶ cm/s and the basolateral-to-apical permeability (Papp B→A) – broadly, the apparent permeability from the basolateral to the apical side of a cell layer – at 2.5 h, 2 µM was found to be 8.78 ×10⁻⁶ cm/s. In series [1] (iv, i.v. 1 mg/kg), the AUC(0-t) – broadly, the area under the concentration-time curve up to a stated or last time point – amounted to 10500 ng·h/mL; the clearance – broadly, a measure of how efficiently the substance is removed, as volume per time – was found to be 1.6 mL/min/kg; the half-life (in general, the time in which the quantity being followed falls by half) was 0.86 h. Further, the bioavailability in series [1] was 70.7%. In series [1] (po, p.o. 5 mg/kg), this compound showed an AUC(0-t) of 26100 ng·h/mL and a half-life of 0.9 h. Moreover, the half-maximal inhibitory concentration (IC50) in series [2] amounted to 0.59 nM.
Regarding `CNC(=O)c1ccc(N2CCN(Cc3ccc4c(c3F)NC(=O)N3CCCN=C43)CC2)c(F)n1` [Compound 139], in the series with MDA-MB-436 cells, half-maximal inhibition (IC50) was put at 10.4 nM. Besides, in the series on MDR1, the Papp A→B at 2.5 h, 2 µM was 16.7 ×10⁻⁶ cm/s and the Papp B→A at 2.5 h, 2 µM amounted to 21.8 ×10⁻⁶ cm/s. Further, in series [1] (iv, i.v. 1 mg/kg), the AUC(0-t) was determined as 2820 ng·h/mL, the clearance turned out to be 5.9 mL/min/kg and the half-life was 3.1 h. Besides, the bioavailability in series [1] came out at 98%. In series [1] (po, p.o. 5 mg/kg), this compound gave an AUC(0-t) of 13800 ng·h/mL and a half-life of 3.2 h. Moreover, the IC50 in series [2] was determined as 1 nM.
In the series on MDA-MB-436 cells, `CNC(=O)c1ccc(N2CCN(Cc3ccc4c(c3F)NC(=O)N3CCCN=C43)CC2)c(Cl)n1` [Compound 141] came in with an IC50 of 5.8 nM. In the series on MDR1, this compound returned a Papp A→B at 2.5 h, 2 µM of 16.2 ×10⁻⁶ cm/s and a Papp B→A at 2.5 h, 2 µM of 23.1 ×10⁻⁶ cm/s. Besides, in series [1] (iv, i.v. 1 mg/kg), the AUC(0-t) was 3020 ng·h/mL, the clearance stood at 5.5 mL/min/kg and the half-life was 1.2 h. In addition, in series [1], the bioavailability came out at 92.6%. In series [1] (po, p.o. 5 mg/kg), this compound had an area under the curve AUC(0-t) of 14000 ng·h/mL and a half-life of 2.5 h. Further, the concentration for half-maximal inhibition (IC50) in series [2] is 1.3 nM.
Turning to `CNC(=O)c1ccc(N2CCN(Cc3ccc4c(c3F)NC(=O)N3C[C@@H](C)N=C43)CC2)c(F)n1` [Compound 132], in series [3], the IC50 is 288 nM. This compound yielded an IC50 in the series on MDA-MB-436 cells of 12.1 nM. In addition, the efflux ratio at 2.5 h, 2 µM in the series on MDR1 (P-gp) worked out at 2.1. In the series with MDR1, the Papp A→B at 2.5 h, 2 µM was 12.8 ×10⁻⁶ cm/s and the Papp B→A at 2.5 h, 2 µM is 26.8 ×10⁻⁶ cm/s. In series [1] (iv, i.v. 1 mg/kg), this compound had an exposure AUC(0-t) of 6630 ng·h/mL, a clearance of 2.8 mL/min/kg and a half-life of 3 h. Further, the bioavailability in series [1] is 98.7%. In addition, in series [1] (po, p.o. 5 mg/kg), the area under the curve AUC(0-t) amounted to 33100 ng·h/mL and the half-life is 4.4 h. The half-maximal inhibitory concentration (IC50) in series [2] came to 1.5 nM. Moreover, the “PARP1/2 Fold selectivity” value in series [4] amounted to 191.8.
`CNC(=O)c1ccc(N2CCN(Cc3ccc4c(c3F)NC(=O)N3CC5(CC5)N=C43)CC2)c(C)n1` [Compound 157]: the figures for the IC50 (in the series with MDA-MB-436 cells; in series [2]) were 3.6 nM and 0.5 nM, respectively. Also, in the series with MDR1, the apical-to-basolateral permeability (Papp A→B) at 2.5 h, 2 µM is 15.1 ×10⁻⁶ cm/s. This compound yielded a Papp B→A at 2.5 h, 2 µM in the series on MDR1 of 21.6 ×10⁻⁶ cm/s.
With `CNC(=O)c1ccc(N2CCN(Cc3ccc4c(c3F)NC(=O)N3C[C@@H](C)N=C43)CC2)c(Cl)n1` [Compound 154], in series [3], the IC50 was determined as 1130 nM. Half-maximal inhibition in the series with MDA-MB-436 cells (IC50) required 0.33 nM. Further, the efflux ratio at 2.5 h, 2 µM with MDR1 (P-gp) was 1.64. In the series with MDR1, the apparent permeability from apical to basolateral (Papp A→B) at 2.5 h, 2 µM came to 13.9 ×10⁻⁶ cm/s and the Papp B→A at 2.5 h, 2 µM stood at 22.8 ×10⁻⁶ cm/s. In series [1] (iv, i.v. 1 mg/kg), this compound had an AUC(0-t) of 7240 ng·h/mL, a clearance of 2.3 mL/min/kg and a half-life of 1.1 h. In addition, in series [1], the bioavailability worked out at 62.1%. In series [1] (po, p.o. 5 mg/kg), this compound gave an AUC(0-t) of 22500 ng·h/mL and a half-life of 2.3 h. For the same compound, the IC50 in series [2] was 1.6 nM. In addition, in series [4], the “PARP1/2 Fold selectivity” value is listed as 706.9.
Regarding `CNC(=O)c1ccc(N2CCN(Cc3ccc4c(c3F)NC(=O)N3CC5(CC5)N=C43)CC2)c(Cl)n1` [Compound 158], in the series with MDA-MB-436 cells, 2.2 nM corresponded to half-maximal inhibition (IC50). In the series with MDR1, the apical-to-basolateral permeability (Papp A→B) at 2.5 h, 2 µM was determined as 14.7 ×10⁻⁶ cm/s and the basolateral-to-apical permeability (Papp B→A) at 2.5 h, 2 µM turned out to be 14.1 ×10⁻⁶ cm/s. In series [1] (iv, i.v. 1 mg/kg), this compound had an AUC(0-t) of 3090 ng·h/mL, a clearance of 5.5 mL/min/kg and a half-life of 0.8 h. Also, in series [1], the bioavailability is 108%. In series [1] (po, p.o. 5 mg/kg), this compound showed an AUC(0-t) of 11000 ng·h/mL and a half-life of 1 h. Besides, the half-maximal inhibitory concentration (IC50) in series [2] came out at 0.48 nM.
In turn, `CNC(=O)c1ccc(N2CCN(Cc3ccc4nc(C)c(=O)[nH]c4c3F)CC2)c(F)n1` [AZD-9574] gave an IC50 in the series on MDA-MB-436 cells of 15.7 nM. In addition, the efflux ratio at 2.5 h, 2 µM in the series with MDR1 (P-gp) amounted to 1. Also, in the series on MDR1, the apparent permeability from apical to basolateral (Papp A→B) at 2.5 h, 2 µM is 19.4 ×10⁻⁶ cm/s and the apparent permeability from basolateral to apical (Papp B→A) at 2.5 h, 2 µM was determined as 19.4 ×10⁻⁶ cm/s.
